Assay results reported in PMC8891108, “Development and characterization of anti-fibrotic natural compound similars with improved effectivity” (Basic Research in Cardiology, 2022).

How the values were obtained:
[1] = test system: human iPS-derived cardiomyocytes (hiPS-CM); assay: LDH release in hiPS-CM; assay type: cell-based; details: maximal available concentration
Protocol: (§1) As contrast to activity, toxicity of top six similars and lead compounds was determined by a multiplex measurement of caspase activation and membrane integrity (using LDH release and inclusion of the CellTox Green dye). Briefly, HCFs were seeded as before. After 24 h, cells were treated with serial dilutions of compounds with additional 0.1% CellTox™ Green dye (Promega, #G8741). After 24 h incubation, 5 µL medium was removed from each well, mixed with 95 µL LDH Storage buffer (Promega, #J2380) and frozen for later analysis. 95 µL Caspase-Glo® 3/7 reagent (Promega, #G8090) was added to each well, and after 60 min of incubation luminescence was measured in a Synergy HT. Afterwards, micrographs of brightfield and green fluorescence were taken using a Cytation 1 (BioTek) automated microscope maintaining 37 °C and 5% CO2. Wells were manually checked for co-localization of fluorescence signal with cells in brightfield. On the next day, supernatants in LDH Storage buffer were thawed, and 50 µL was mixed with 50 µL of LDH Detection reagent and luminescence was measured after 60 min of incubation. Dose–response curves were determined as described before. To determine toxicity of the top 3 anti-fibrotic similars in hiPS-CM, 20,000 cells/well were seeded, treated and analysed as above, devoid the fluorescent dye steps.

[2] = test system: human iPS-derived cardiomyocytes (hiPS-CM); assay: Caspase-3/7 activation in hiPS-CM; assay type: cell-based; details: maximal available concentration
Protocol: as §1

`COc1cccc2c1C(=O)c1c(O)c3c(c(O)c1C2=O)C[C@@](O)(C(=O)CO)C[C@@H]3O[C@H]1C[C@H](N)[C@H](O)[C@H](C)O1` [doxorubicin] was tested, and the LDH release [1] was “increased LDH release” and the Caspase-3/7 activation [2] was “Caspase-3/7 activation”.
